Measured values taken from patent publication US8309550B2, “Kinase inhibitors and their use as pharmaceutical agents” (Shanghai Genomics, Inc., priority 2011, dated 2012).
Read-outs that look alike come from different tables or passages of the source.

Assays:
[1] = system: Jurkat; experiment: 72 h MTT cell viability Jurkat; type: cell-based; settings: Homo sapiens
Text: (§1) MIT cytotoxicity assay. The compounds of the invention were subjected to a standard cellular proliferation assay using human cell lines. HeLa cells (Human cervix adenocarcinoma cell line, ATCC NO, CCL-2); A549 cells (Human lung carcinoma cells line, ATCC NO, CCL-185); U2OS cells (Human osteosarcoma cell line, ATCC NO, HTB-96); Eca-109 cells (Human esophageal carcinoma cell line); HepG2 (Human hepatocellular liver carcinoma cell line, ATCC NO, HB-8065); K562 cells (Human chronic myelogenous leukemia cell line, ATCC NO, CCL-243); SK-MEL-28 (Human malignant melanoma cell line, ATCC NO, HTB-72); Molt-4 (Human acute lymphoblastic leukemia cell line, ATCC NO, CRL-1582); H460 (Human large cell lung cancer cell line, ATCC NO, HTB-177); MDA-MB-231 (Human breast adenocarcinoma cell line, ATCC NO, HTB-26); MCF7 (Human breast adenocarcinoma cell line, ATCC NO, HTB-22); ACHN (Human renal cell adenocarcinoma cell line, ATCC NO, CRL-1611); PC-3M (Human prostate adenocarcinoma cell line, ATCC NO CRL-1435); HL60 (Human acute promyelocytic leukemia cell line, ATCC NO, CCL-240); THP-1 (Human acute monocytic leukemia, ATCC NO, TIB-202); Jurkat (Human acute T cell leukemia cell line, ATCC NO, CRL-2063); HCT-116 (Human colorectal carcinoma cell line, ATCC NO, CCL-247); HT-29 (Human colorectal adenocarcinoma cell line, ATCC NO, HTB-38™); WI-38 (Human normal lung cell line, ATCC NO, CCL-75); MRC-5 (Human normal lung cell line, ATCC NO, CCL-171).
(§2) HepG2, MDA-MB-231, WI-38 and MRC-5 cells were obtained from Shanghai Institute of Cell Biology, Chinese Academy of Sciences (Shanghai 200031, China). A549, HeLa, K562, MCF7, ACHN, H460, U2OS, Eca-109, MCF7, HL60, THP-1, Jurkat, HCT-116, HT-29, PC-3M, SK-MEL-28, Molt-4, H460 and […] cells were purchased from ATCC (American Type Culture Collection, USA).
(§3) Standard 72 h MTT (thiazolye blue; 3-[4,5-dimethylthiazol-2-yl]-2,5-diphenyltetrazolium bromide) assays were performed. Briefly, the cell lines used in this study were recovered and cultured according to the conditions recommended. 4000 cells per well were seeded into 96-well plates according to doubling time and incubated overnight at 37° C. Compounds were prepared in DMSO and a ½ dilution series in 100 μl cell culture media, added to cells (in duplicates) with the final DMSO concentration of 0.025%, and incubated for 72 hrs at 37° C. MTT solution (5 mg/ml) was added at 10 μl per well and incubated in the dark at 37° C. for 4 hr. Culture medium and MTT solution was removed. MTT dye was solubilised with 100 μl per well of DMSO with agitation. Absorbance was read at 562 nm and data analyzed using Sigmoid curve-fitting software Origin 6.0 (MicroCal, LLC, USA) to determine IC50 value.

[2] = target: T1, TSSK1 (Homo sapiens, UniProt Q9BXA7); experiment: Kinase assay TSSK1 (Table III); settings: read-out: Target biochemical activity IC50 TSSK1
T1 sequence (Q9BXA7 1-367): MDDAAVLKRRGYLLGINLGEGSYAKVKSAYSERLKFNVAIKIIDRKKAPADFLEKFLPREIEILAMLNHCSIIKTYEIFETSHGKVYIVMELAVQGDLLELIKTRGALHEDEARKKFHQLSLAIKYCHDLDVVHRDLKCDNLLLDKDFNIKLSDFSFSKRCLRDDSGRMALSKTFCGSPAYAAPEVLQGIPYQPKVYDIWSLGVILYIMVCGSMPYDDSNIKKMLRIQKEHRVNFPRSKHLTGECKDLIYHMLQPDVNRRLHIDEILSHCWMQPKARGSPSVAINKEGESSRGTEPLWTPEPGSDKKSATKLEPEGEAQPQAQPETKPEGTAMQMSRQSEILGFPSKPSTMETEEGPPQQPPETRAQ
Protocol: (§4) Kinase assays. The compounds were tested for their ability to inhibit kinases.

[3] = system: MRC-5; experiment: 72 h MTT cell viability MRC-5 (normal lung); type: cell-based; settings: Homo sapiens, MRC5
Text: as §1, §2, §3

[4] = target: CDK9 (Homo sapiens, UniProt P50750); experiment: CDK9 inhibitory activity, kinase assays (Table III); settings: read-out: Target biochemical activity IC50 CDK9
Chain of CDK9 (P50750 whole entry, species assumed): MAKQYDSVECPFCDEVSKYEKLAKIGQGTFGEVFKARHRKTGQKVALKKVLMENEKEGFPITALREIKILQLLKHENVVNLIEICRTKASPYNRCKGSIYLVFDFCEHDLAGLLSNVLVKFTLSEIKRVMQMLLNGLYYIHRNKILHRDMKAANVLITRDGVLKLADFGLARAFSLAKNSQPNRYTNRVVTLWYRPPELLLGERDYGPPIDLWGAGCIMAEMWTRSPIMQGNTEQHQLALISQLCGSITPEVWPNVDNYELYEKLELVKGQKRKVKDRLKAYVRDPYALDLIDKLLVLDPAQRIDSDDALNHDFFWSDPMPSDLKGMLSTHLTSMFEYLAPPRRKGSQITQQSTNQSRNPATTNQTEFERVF
Chain of CDK9 (O60563 whole entry partner, species assumed): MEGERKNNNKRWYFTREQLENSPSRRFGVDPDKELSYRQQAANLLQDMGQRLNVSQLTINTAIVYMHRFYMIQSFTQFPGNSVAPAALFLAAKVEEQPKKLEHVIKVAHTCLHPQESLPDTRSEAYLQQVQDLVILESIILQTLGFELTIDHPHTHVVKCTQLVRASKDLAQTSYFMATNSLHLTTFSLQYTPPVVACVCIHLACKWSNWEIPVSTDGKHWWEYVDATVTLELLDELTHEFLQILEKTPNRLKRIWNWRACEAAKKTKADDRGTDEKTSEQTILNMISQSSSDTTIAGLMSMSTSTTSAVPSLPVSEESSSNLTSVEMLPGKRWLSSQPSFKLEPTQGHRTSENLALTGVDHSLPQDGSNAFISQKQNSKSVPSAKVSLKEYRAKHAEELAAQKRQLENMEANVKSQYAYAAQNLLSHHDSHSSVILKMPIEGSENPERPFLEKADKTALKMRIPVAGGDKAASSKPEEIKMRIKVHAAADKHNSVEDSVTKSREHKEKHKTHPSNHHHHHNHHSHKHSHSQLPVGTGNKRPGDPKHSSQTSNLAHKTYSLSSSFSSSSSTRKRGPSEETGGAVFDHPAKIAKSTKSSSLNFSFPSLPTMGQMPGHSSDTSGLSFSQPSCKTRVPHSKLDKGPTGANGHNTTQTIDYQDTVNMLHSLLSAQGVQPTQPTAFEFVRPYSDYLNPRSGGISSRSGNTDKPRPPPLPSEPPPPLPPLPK
Protocol: as §4

[5] = target: SRC (Homo sapiens, UniProt P12931); experiment: Kinase assay SRC (Table III); settings: read-out: Target biochemical activity IC50 SRC
Chain of SRC (P12931 whole entry, species assumed): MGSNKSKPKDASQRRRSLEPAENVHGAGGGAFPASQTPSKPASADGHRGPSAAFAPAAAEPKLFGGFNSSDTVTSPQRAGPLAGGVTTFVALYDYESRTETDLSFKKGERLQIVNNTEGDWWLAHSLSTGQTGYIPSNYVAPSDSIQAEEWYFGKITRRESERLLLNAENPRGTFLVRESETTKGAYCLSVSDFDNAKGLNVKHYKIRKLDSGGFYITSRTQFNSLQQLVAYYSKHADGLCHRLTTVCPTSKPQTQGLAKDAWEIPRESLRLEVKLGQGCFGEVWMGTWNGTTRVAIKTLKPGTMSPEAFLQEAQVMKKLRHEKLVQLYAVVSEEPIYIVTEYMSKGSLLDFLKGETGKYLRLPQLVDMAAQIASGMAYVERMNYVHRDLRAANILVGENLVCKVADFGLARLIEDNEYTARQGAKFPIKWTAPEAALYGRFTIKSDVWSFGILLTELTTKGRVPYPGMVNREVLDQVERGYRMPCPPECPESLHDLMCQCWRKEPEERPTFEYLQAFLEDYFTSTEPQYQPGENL
Protocol: as §4

[6] = target: CDK7 (Homo sapiens, UniProt P50613); experiment: Kinase assay CDK7 (Table III); settings: read-out: Target biochemical activity IC50 CDK7
Chain of CDK7 (P50613 whole entry, species assumed): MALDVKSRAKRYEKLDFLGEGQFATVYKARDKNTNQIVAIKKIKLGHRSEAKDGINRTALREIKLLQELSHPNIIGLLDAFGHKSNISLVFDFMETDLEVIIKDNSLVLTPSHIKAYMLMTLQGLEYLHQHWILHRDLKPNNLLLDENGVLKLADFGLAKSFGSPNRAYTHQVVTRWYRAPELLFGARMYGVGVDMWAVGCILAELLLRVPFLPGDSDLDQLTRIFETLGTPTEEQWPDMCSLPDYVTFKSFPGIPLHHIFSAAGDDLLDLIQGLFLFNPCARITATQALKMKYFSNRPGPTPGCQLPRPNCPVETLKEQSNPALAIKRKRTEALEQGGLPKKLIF
Chain of CDK7 (P51946 whole entry partner, species assumed): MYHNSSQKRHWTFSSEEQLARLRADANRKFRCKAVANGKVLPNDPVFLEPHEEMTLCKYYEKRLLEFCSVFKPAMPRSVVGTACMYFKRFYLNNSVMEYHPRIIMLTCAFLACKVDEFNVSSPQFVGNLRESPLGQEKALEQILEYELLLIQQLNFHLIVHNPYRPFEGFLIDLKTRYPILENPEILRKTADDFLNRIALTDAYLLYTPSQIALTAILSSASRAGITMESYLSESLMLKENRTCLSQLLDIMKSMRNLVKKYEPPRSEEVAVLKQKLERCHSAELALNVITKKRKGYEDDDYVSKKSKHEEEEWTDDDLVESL
Chain of CDK7 (P51948 whole entry partner, species assumed): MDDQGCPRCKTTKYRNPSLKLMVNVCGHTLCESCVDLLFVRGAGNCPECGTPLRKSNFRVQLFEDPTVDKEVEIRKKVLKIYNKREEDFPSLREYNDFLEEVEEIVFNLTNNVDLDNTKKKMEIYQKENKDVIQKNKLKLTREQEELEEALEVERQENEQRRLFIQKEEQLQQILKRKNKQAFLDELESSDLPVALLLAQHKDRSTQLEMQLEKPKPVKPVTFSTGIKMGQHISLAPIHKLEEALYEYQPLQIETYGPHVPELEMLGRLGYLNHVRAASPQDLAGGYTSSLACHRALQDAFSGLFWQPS
Protocol: as §4

[7] = system: Molt-4-luc; experiment: 72 h MTT cytotoxicity assay Molt-4-luc; type: cell-based; settings: Homo sapiens
Text: as §1, §2, §3

[8] = system: HL-60; experiment: 72 h MTT cell viability HL-60; type: cell-based; settings: Homo sapiens
Text: as §1, §2, §3

[9] = system: lung carcinoma (H460); experiment: Inhibition of tumor growth, NCI-H460 in SCID-bg mice; type: in vivo; settings: oral once a day
Protocol: Tumor type: lung carcinoma (H460)
Treatment: Single PO dose for 21 days (starting at day 7 following tumor inoculation)
Endpoint: tumor volume and mean luciferase activity by Xenogen (Caliper) machine:
SCID-bg mice were implanted with NCI-H460 cells at 5×10^6 cells/mouse on Day 0. Compound 18 treatment began on Day 7. […] In model group, the vehicle was used instead of compound 18. Tumor volume and mean luciferase activity by Xenogen technology were measured once per there days.

[10] = Table III, read-out: Cellular effect in mammalian cells IC50 Jurkat
[11] = MRC-5, Table III, read-out: Cellular effect in mammalian cells IC50 MRC-5
[12] = read-out: Cell Viability IC50 Jurkat
[13] = MRC-5, normal lung cell line, read-out: Cell Viability IC50 MRC-5

SMILES | IC50 [4] [nM] | IC50 [5] [nM] | IC50 [6] [nM] | IC50 [7] [nM] | IC50 [1, 12] [nM] | IC50 [3, 13] [nM] | IC50 [8] [nM] | also measured
CCCn1cc(-c2ccnc(Nc3ccc(C)c(S(=O)(=O)N4CCOCC4)c3)n2)c2ccncc21 [SG52] | 0.4 | 3930 | 1950 | – | – | – | – | IC50 [1, 10]: 690 nM; IC50 [2]: > 10000 nM; IC50 [3, 11]: 1630 nM
CCCn1cc(-c2ccnc(Nc3cccc(O)c3)n2)c2cccnc21 [Compound 16, 3-(4-(1-Propyl-1H-pyrrolo[2,3-b]pyridin-3-yl)pyrimidin-2-ylamino)phenol] | – | – | – | 3820 | – | – | – | –
CCCn1cc(-c2ccnc(Nc3cccc(S(N)(=O)=O)c3)n2)c2ccnc(Cl)c21 [Compound 96, 3-(4-(7-chloro-1-propyl-1H-pyrrolo[2,3-c]pyridin-3-yl)pyrimidin-2-ylamino)benzenesulfonamide] | – | – | – | 220 | 220 | 890 | 370 | –
CCCn1cc(-c2ccnc(Nc3ccc(O)cc3)n2)c2cccnc21 [Compound 15, 4-(4-(1-Propyl-1H-pyrrolo[2,3-b]pyridin-3-yl)pyrimidin-2-ylamino)phenol] | – | – | – | 2460 | – | – | – | –
CCCn1cc(-c2ccnc(Nc3cccc(S(N)(=O)=O)c3)n2)c2cccnc21 [Compound 22, 3-(4-(1-Propyl-1H-pyrrolo[2,3-b]pyridin-3-yl)pyrimidin-2-ylamino)benzenesulfonamide] | – | – | – | 2450 | 1470 | 5170 | 2090 | –
CCCn1cc(-c2ccnc(Nc3cccc(S(N)(=O)=O)c3)n2)c2ccncc21 [SG51] | 0.6 | 200 | 43 | – | – | – | – | IC50 [2]: 1.6 nM
CCCn1cc(-c2ccnc(Nc3ccc(C)c(S(=O)(=O)N4CCOCC4)c3)n2)c2cccnc21 [Compound 24, N-(4-Methyl-3-(morpholinosulfonyl)phenyl)-4-(1-propyl-1H-pyrrolo[2,3-b]pyridin-3-yl)pyrimidin-2-amine] | – | – | – | 4510 | 1790 | 3880 | 3490 | –
CCCn1cc(-c2ccnc(Nc3cccc(S(N)(=O)=O)c3)n2)c2ccncc21 [Compound 111, 3-(4-(1-Propyl-1H-pyrrolo[2,3-c]pyridin-3-yl)pyrimidin-2-ylamino)benzenesulfonamide] | – | – | – | 10 | 5.4 | 60 | 10 | –
CCn1cc(-c2ccnc(Nc3cccc(S(N)(=O)=O)c3)n2)c2cccnc21 [Compound 18, 3-(4-(1-Ethyl-1H-pyrrolo[2,3-b]pyridin-3-yl)pyrimidin-2-ylamino)benzenesulfonamide] | 13 | 1050 | 146 | 1050 | – | 13300 | 1850 | % Tumor Growth Inhibition at Day 21 ([9]; 20 mg/kg): 41.3%; % Tumor Growth Inhibition at Day 21 ([9]; 150 mg/kg): 56.5%; IC50 [1, 10]: 1310 nM
CCCn1cc(-c2ccnc(Nc3ccc(S(N)(=O)=O)cc3)n2)c2nc(Cl)cc(C)c21 [SG54] | 57 | > 10000 | > 10000 | – | – | – | – | IC50 [1, 10]: 1120 nM; IC50 [2]: > 10000 nM; IC50 [3, 11]: 3970 nM
CCCn1cc(-c2ccnc(Nc3cccc(S(N)(=O)=O)c3)n2)c2nc(Cl)cc(C)c21 [SG53] | 41 | > 10000 | > 10000 | – | – | – | – | IC50 [1, 10]: 360 nM; IC50 [2]: > 10000 nM
CCCn1cc(-c2ccnc(Nc3ccc(C)c(S(=O)(=O)N4CCOCC4)c3)n2)c2ccncc21 [Compound 102, N-(4-Methyl-3-(morpholinosulfonyl)phenyl)-4-(1-propyl-1H-pyrrolo[2,3-c]pyridin-3-yl)pyrimidin-2-amine] | – | – | – | 230 | – | – | 230 | –
CCCn1cc(-c2ccnc(Nc3cccc(S(N)(=O)=O)c3)n2)c2nc(Cl)cc(C)c21 [Compound 42, 3-(4-(5-Chloro-7-methyl-1-propyl-1H-pyrrolo[3,2-b]pyridin-3-yl)pyrimidin-2-ylamino)benzenesulfonamide] | – | – | – | 4790 | – | 14600 | 1140 | –
CCCn1cc(-c2ccnc(Nc3ccc(S(N)(=O)=O)cc3)n2)c2ccncc21 [Compound 112, 4-(4-(1-Propyl-1H-pyrrolo[2,3-c]pyridin-3-yl)pyrimidin-2-ylamino)benzenesulfonamide] | – | – | – | 20 | 2.5 | > 10000 | 8 | –
CCn1cc(-c2ccnc(Nc3cccc(C#N)c3)n2)c2cccnc21 [Compound 20, 3-(4-(1-Ethyl-1H-pyrrolo[2,3-b]pyridin-3-yl)pyrimidin-2-ylamino)benzonitrile] | – | – | – | 3430 | 3420 | 15100 | 3410 | –
